Data published in US10035790B2, “RORγ modulators” (BRISTOL-MYERS SQUIBB COMPANY, priority 2012, dated 2018).

Target: T1, ligand binding domain of human RORγ (A262-S507) (Homo sapiens, UniProt P51449)
T1 construct: made in house; host or cells: E. coli
T1 sequence (P51449 262-507): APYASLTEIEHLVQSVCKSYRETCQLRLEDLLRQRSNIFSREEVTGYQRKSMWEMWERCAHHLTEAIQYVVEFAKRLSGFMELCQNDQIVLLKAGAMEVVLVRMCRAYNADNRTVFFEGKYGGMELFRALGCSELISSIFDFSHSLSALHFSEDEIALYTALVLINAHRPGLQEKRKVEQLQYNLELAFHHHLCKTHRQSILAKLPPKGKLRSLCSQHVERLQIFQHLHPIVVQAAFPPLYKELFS
Assay: General RORγ SPA binding assay (competition with [3H]25-hydroxycholesterol)
Settings: RORγ SPA binding assay, inhibition of [3H]25-hydroxycholesterol binding; read-out: IC50
Outline: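 Step one: compound meets 50 nM nickel-purified, His-tagged protein from E. coli for 15 min at room temperature (PBS, 0.5% fatty acid free BSA). Step two: radioligand is added for another 15 min. Step three: SPA beads are added for 30 min before scintillation reading and IC50 fitting.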

IC50	SMILES
5.7 nM	Cc1ncc(C(=O)NCc2cccc(C(F)(F)F)n2)c(C2CCN(C(=O)Cc3c(F)cccc3F)CC2)n1 [Compound A44, 4-(1-(2-(2,6-difluorophenyl)acetyl)piperidin-4-yl)-2-methyl-N-((6-(trifluoromethyl)pyridin-2-yl)methyl)pyrimidine-5-carboxamide]
114 nM	Cc1nc(C)c(-c2nc(-c3cccc(C(F)(F)F)c3)no2)c(C2CCN(C(=O)Cc3c(F)cccc3F)CC2)n1 [Compound C1, 4-{1-[(2,6-Difluorophenyl)acetyl]piperidin-4-yl}-2,6-dimethyl-5-{3-[3-(trifluoromethyl)phenyl]-1,2,4-oxadiazol-5-yl}pyrimidine]
12.3 nM	Cc1ncc(C(C)(O)CNc2cccc(C(F)(F)F)n2)c(C2CCN(C(=O)Nc3c(F)cccc3F)CC2)n1 (centres unmarked) [Compound D16, N-(2,6-Difluorophenyl)-4-[5-(1-hydroxy-1-methyl-2-{[6-(trifluoromethyl)pyridin-2-yl]amino}ethyl)-2-methylpyrimidin-4-yl]piperidine-1-carboxamide]
14.7 nM	CSc1ncc(C(C)(O)COc2ccnc(C(F)(F)F)n2)c(C2CCN(C(=O)Nc3c(F)cccc3F)CC2)n1 (centres unmarked) [Compound D28, N-(2,6-Difluorophenyl)-4-[5-(1-hydroxy-1-methyl-2-{[2-(trifluoromethyl)pyrimidin-4-yl]oxy}ethyl)-2-(methylthio)pyrimidin-4-yl]piperidine-1-carboxamide]
18.6 nM	CSc1ncc(C(=O)COc2ccnc(C(F)(F)F)n2)c(C2CCN(C(=O)Nc3c(F)cccc3F)CC2)n1 [Compound M2, N-(2,6-Difluorophenyl)-4-[2-(methylthio)-5-({[2-(trifluoromethyl)pyrimidin-4-yl]oxy}acetyl)pyrimidin-4-yl]piperidine-1-carboxamide]
76.4 nM	C/C(=N\Oc1cccc(C(F)(F)F)c1)c1cnc(C)nc1C1CCN(C(=O)Nc2c(F)cccc2F)C(C)C1 (centres unmarked) [Compound B47, N-(2,6-Difluorophenyl)-2-methyl-4-{2-methyl-5-[(1E)-N-{[3-(trifluoromethyl)phenyl]oxy}ethanimidoyl]pyrimidin-4-yl}piperidine-1-carboxamide]
155 nM	Cc1nc(C)c(-c2nnc(-c3ccnc(C(F)(F)F)n3)o2)c(C2CCN(C(=O)N(C)c3c(F)cccc3F)CC2)n1 [Compound C36, N-(2,6-Difluorophenyl)-4-(2,6-dimethyl-5-(5-(2-(trifluoromethyl)pyrimidin-4-yl)-1,3,4-oxadiazol-2-yl)pyrimidin-4-yl)-N-methylpiperidine-1-carboxamide]
49 nM	Cc1cc(C)cc(CNC(=O)c2cnc(C)nc2C2CCN(C(=O)Cc3ccccc3C)CC2)c1 [Compound A11, N-(3,5-dimethylbenzyl)-2-methyl-4-(1-(2-(o-tolyl)acetyl)piperidin-4-yl)pyrimidine-5-carboxamide]
241 nM	CCC/C(=N\Oc1cccc(C(F)(F)F)c1)c1c(C)nc(C)nc1C1CCN(C(=O)Cc2c(F)cccc2F)CC1 [Compound B48, (1E)-1-(4-{1-[(2,6-difluorophenyl)acetyl]piperidin-4-yl}-2,6-dimethylpyrimidin-5-yl)butan-1-one O-[3-(trifluoromethyl)phenyl]oxime]
49.1 nM	C/C(=N\Oc1ccnc(Cl)c1)c1cnc(N)nc1C1CCN(C(=O)Nc2c(F)cccc2F)CC1 [Compound B59, 4-(2-Amino-5-{(1E)-N-[(2-chloropyridin-4-yl)oxy]ethanimidoyl}pyrimidin-4-yl)-N-(2,6-difluorophenyl)piperidine-1-carboxamide]

SMILES	IC50
Cc1nc(N)nc(C2CCN(C(=O)Oc3ccc(F)cc3)CC2)c1-c1nnc(-c2ccnc(C(F)(F)F)n2)o1 [Compound C53, 4-Fluorophenyl 4-(2-amino-6-methyl-5-{5-[2-(trifluoromethyl)pyrimidin-4-yl]-1,3,4-oxadiazol-2-yl}pyrimidin-4-yl)piperidine-1-carboxylate]	37.3 nM
